According to patent US5162315A, “Penetration enhancers” (priority 1989, dated 1992):

What was measured:
[1] = type: in vitro ADME, human
Procedure: The compounds of the present invention were tested in vitro as penetration enhancers according to the procedure outlined below.
(§1) Human stratum corneum was isolated from full thickness human skin as described by Bronaugh et al., J. Pharm. Sci. 75, 1094 (1986). The skin was placed between the donor and the receptor compartments of diffusion cells in such a way that the dermal side of the skin faced the receptor compartment which was filled with normal saline (pH 7.2-7.4). The stratum corneum was equilibrated at 37° C. overnight prior to the application of a topical formulation or transdermal patch. All formulations were studied in triplicate.
(§2) About 500 mg of the following three Isosorbide Dinitrate (ISDN) formulations (40% ISDN & 60% Lactose) were applied to cover the stratum corneum surface within the donor compartment. The entire contents of the receptor compartment were removed at specific time intervals over 48 hours and replenished with fresh saline. The aliquots were analyzed by HPLC and the average cumulative amount of ISDN in micrograms permeating over the study period was calculated.
Procedure of Example 8 was repeated with the following

[2] = type: in vitro ADME, human; remark: listed apart in the source
Procedure: The compounds of the present invention were tested in vitro as penetration enhancers according to the procedure outlined below. The penetration enhancers were formulated with pharmacologically active agents in creams and permeation of the active agent through human stratum corneum in vitro was compared to control formulation without enhancer. Higher permeation of the active agent in presence of an enhancer exemplified the invention.
as §1, §2
Procedure of Example 8 was repeated with the following Haloperiodol Decanoate (HD) cream formulations. Saline in the receptor compartment was substituted with saline/isopropyl alcohol (1:1).

For `CCCCCCCCCCCC1=NCCN1CCO` [1-(2-hydroxyethyl)-2-undecyl-2-imidazoline, reference compound], the “Average Cumulative Amount of HC in Micrograms permeating over 48 hours” value [1] was 67.53 ± 3.34 Micrograms.
With `CCCCCCCCCCCC(=O)NCCNCCO` [Example 1, N-[2-(2-hydroxyethyl)aminoethyl]dodecanamide] the “Average Cumulative Amount of HC in Micrograms permeating over 48 hours” value [1] was 55.19 ± 5.16 Micrograms, the “HC permeation compared to control cream” value [1] was “superior permeation as compared to control cream” and the “HC permeation enhancement compared to cyclic isomer” value [1] was “as effective as its cyclic isomer”.
In the case of `CCCCCCCCCCCC(=O)N1CCN(CCO)CC1` [Example 5, 1-(1-oxododecyl)-4-(2-hydroxyethyl)piperazine], the “Average Cumulative Amount of HD in Micrograms permeating over 51 hours” value [2] is reported as 936.66 ± 16.98 Micrograms and the “HD permeation compared to control” value [2] is reported as “higher HD permeation as compared to control”.
In the case of `CCCCCCCCCC(=O)OC1(c2ccc(Cl)cc2)CCN(CCCC(=O)c2ccc(F)cc2)CC1` [HD, Haloperiodol Decanoate, reference compound], the “Average Cumulative Amount of HD in Micrograms permeating over 51 hours” value [2] is reported as 617.68 ± 17.68 Micrograms.
